Series [1] is described as follows: Peptide solubility in PBS/H2O.
In series [2] the target is EphA2 (Homo sapiens, UniProt P29317). The experiment in a line: ELISA: inhibition of ephrin-A5 AP binding to immobilized EphA2 Fc. Particulars: average ± SE. Set-up: the immobilized EphA2 extracellular domain fused to the Fc portion of an antibody (EphA2 Fc). How it is done: (FIG. 2A) Representative ELISAs comparing the ability of the peptides to inhibit binding of ephrin-A5 fused to alkaline phosphatase (ephrin-A5 AP) to the immobilized EphA2 extracellular domain fused to the Fc portion of an antibody (EphA2 Fc). The graphs show averages±SE from triplicate measurements from a representative experiment. IC50 values calculated from the fitted curves in each experiment are shown. All concentrations are nM and the 100 nM peptide concentration is outlined in red. (FIG. 2B) Ephrin-A5 AP binding to the indicated EphA receptors and ephrin-B2 AP binding to the indicated EphB receptors in the presence of the indicated peptide, normalized to ephrin binding without peptide. The bars show averages±SE from triplicate measurements.
(An ELISA detects its analyte on a solid surface through an enzyme-linked reagent.)

The mark [3] stands for this setting: PBS, Solubility in PBS (mg/ml), PBS (first figure of cell).
Setting [4] is: water, Solubility in H2O (mg/ml), H2O (second figure of cell).

Values after ≈ are worked out from the molar mass of the structure shown. Non-standard residues stand in square brackets, D forms with d. Residues, ends and D or L forms follow the SMILES beside them. No end group written: not given here. *: point of attachment. Biotin = O=C1N[C@H]2[C@H](CS[C@H]2CCCCC(=O)*)N1; βAla = NCCC(=O)O Some results are limits rather than exact numbers.

Sequence of EphA2 (P29317 24-537 limits assumed, species assumed): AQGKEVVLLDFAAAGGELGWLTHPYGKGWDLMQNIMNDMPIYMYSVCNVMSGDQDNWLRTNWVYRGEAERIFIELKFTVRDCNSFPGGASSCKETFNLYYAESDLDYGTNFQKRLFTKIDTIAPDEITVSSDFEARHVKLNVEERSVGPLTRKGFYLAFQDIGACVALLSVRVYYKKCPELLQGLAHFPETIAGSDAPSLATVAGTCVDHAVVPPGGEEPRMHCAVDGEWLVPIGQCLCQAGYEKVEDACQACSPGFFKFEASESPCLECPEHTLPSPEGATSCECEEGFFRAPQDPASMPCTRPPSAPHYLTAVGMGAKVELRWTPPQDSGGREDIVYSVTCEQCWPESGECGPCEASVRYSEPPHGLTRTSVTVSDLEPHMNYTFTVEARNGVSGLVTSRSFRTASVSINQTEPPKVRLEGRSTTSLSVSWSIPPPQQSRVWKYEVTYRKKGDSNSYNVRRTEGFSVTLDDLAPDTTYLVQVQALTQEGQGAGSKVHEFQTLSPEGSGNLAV

For the compound `CC(C)C[C@H](NC(=O)[C@H](Cc1c[nH]c2ccccc12)NC(=O)[C@H](C)NC(=O)CNC(=O)[C@@H](N)CSCC(N)=O)C(=O)N[C@@H](C)C(=O)N[C@@H](Cc1ccc(O)cc1)C(=O)N1CCC[C@H]1C(=O)N[C@@H](CC(=O)O)C(=O)N[C@@H](CO)C(=O)N[C@H](C(=O)N1CCC[C@H]1C(=O)N[C@@H](Cc1ccc(O)cc1)C(=O)N[C@@H](CCCNC(=N)N)C(=O)N1CCC[C@H]1C(=O)N[C@@H](CCCCNC(=O)CCCC[C@@H]1SC[C@@H]2NC(=O)N[C@@H]21)C(=O)O)C(C)C` [CcamGA-WLA-YRPK-bio], the solubility in series [1] (setting [3]) is < 100 µg/mL.
On to `CC(C)C[C@H](NC(=O)[C@H](Cc1c[nH]c2ccccc12)NC(=O)[C@H](C)NC(=O)[C@@H](N)CCCCNC(=O)CCCC[C@@H]1SC[C@@H]2NC(=O)N[C@@H]21)C(=O)N[C@@H](C)C(=O)N[C@@H](Cc1ccc(O)cc1)C(=O)N1CCC[C@H]1C(=O)N[C@@H](CC(=O)O)C(=O)N[C@@H](CO)C(=O)N[C@H](C(=O)N1CCC[C@H]1C(=O)N[C@@H](Cc1ccc(O)cc1)C(=O)N[C@@H](CCCNC(=N)N)C(=O)N1CCC[C@H]1C(=O)N[C@@H](CCCCN)C(N)=O)C(C)C` [K-bioA-WLA-YRPKam], for which the solubility in series [1] (H2O, Solubility in H2O (mg/ml), H2O (second figure of cell)) worked out at 10000 µg/mL (≈ 4.96 mM); in series [1] (setting [3]), 10000 µg/mL (≈ 4.96 mM).
Consider `CSCC[C@H](NC(=O)[C@@H]1CCCN1C(=O)[C@@H](NC(=O)[C@H](CO)NC(=O)[C@H](CC(=O)O)NC(=O)[C@@H]1CCCN1C(=O)[C@H](Cc1ccc(O)cc1)NC(=O)[C@H](C)NC(=O)[C@H](CO)NC(=O)[C@@H](N)Cc1ccc(O)cc1)C(C)C)C(N)=O` [YSA1-10am], for which the solubility in series [1] (setting [3]) and in series [1] (setting [4]) was 10000 µg/mL (≈ 8.86 mM) in each case.
Turning to `CSCC[C@H](NC(=O)[C@H](CCSC)NC(=O)[C@@H]1CCCN1C(=O)[C@@H](NC(=O)[C@H](CO)NC(=O)[C@H](CC(=O)O)NC(=O)[C@@H]1CCCN1C(=O)[C@H](Cc1ccc(O)cc1)NC(=O)[C@H](C)NC(=O)[C@H](CO)NC(=O)[C@@H](N)Cc1ccc(O)cc1)C(C)C)C(=O)N[C@@H](CO)C(=O)NCC(=O)N[C@@H](CO)C(=O)NCC(=O)N[C@@H](CO)C(=O)N[C@@H](CCCCN)C(=O)O` [YSA-GSGSK], the solubility in series [1] (setting [3]) came to 10000 µg/mL (≈ 5.67 mM); in series [1] (setting [4]), 5000 µg/mL (≈ 2.83 mM). In addition, the IC50 in series [2] was determined as 4500 nM.
Regarding `CSCC[C@H](NC(=O)[C@H](CCSC)NC(=O)[C@@H]1CCCN1C(=O)[C@@H](NC(=O)[C@H](CO)NC(=O)[C@H](CC(=O)O)NC(=O)[C@@H]1CCCN1C(=O)[C@H](Cc1ccc(O)cc1)NC(=O)[C@H](C)NC(=O)[C@H](CO)NC(=O)[C@@H](N)Cc1ccc(O)cc1)C(C)C)C(=O)N[C@@H](CO)C(=O)N[C@@H](CCCCNC(=O)CCCC[C@@H]1SC[C@@H]2NC(=O)N[C@@H]21)C(=O)O` [YSA-K-bio], the solubility in series [1] (setting [3]) and in series [1] (setting [4]) was 10000 µg/mL (≈ 5.88 mM) each time.
For `CC(C)C[C@H](NC(=O)[C@H](Cc1c[nH]c2ccccc12)NC(=O)CCN)C(=O)N[C@@H](C)C(=O)N[C@@H](Cc1ccc(O)cc1)C(=O)N1CCC[C@H]1C(=O)N[C@@H](CC(=O)O)C(=O)N[C@@H](CO)C(=O)N[C@H](C(=O)N1CCC[C@H]1C(=O)N[C@@H](Cc1ccc(O)cc1)C(=O)NCC(=O)N[C@@H](CO)C(=O)NCC(=O)N[C@@H](CCCCNC(=O)CCCC[C@@H]1SC[C@@H]2NC(=O)N[C@@H]21)C(=O)O)C(C)C` [βA-WLA-YGSGK-bio] (H-[βAla]WLAYPDSVPYGSGK(Biotin)-OH; N-terminus and C-terminus assumed), the solubility in series [1] (setting [3]) and in series [1] (setting [4]) was 5000 µg/mL (≈ 2.72 mM) throughout. In series [2], this compound came in with an IC50 of 330 ± 40 nM.
Take `CC(C)C[C@H](NC(=O)[C@H](Cc1c[nH]c2ccccc12)NC(=O)CCN)C(=O)N[C@@H](C)C(=O)N[C@@H](Cc1ccc(O)cc1)C(=O)N1CCC[C@H]1C(=O)N[C@@H](CC(=O)O)C(=O)N[C@@H](CO)C(=O)N[C@H](C(=O)N1CCC[C@H]1C(=O)N[C@@H](Cc1ccc(O)cc1)C(=O)NCC(=O)N[C@@H](CO)C(=O)N[C@@H](CCCCNC(=O)CCCC[C@@H]1SC[C@@H]2NC(=O)N[C@@H]21)C(=O)O)C(C)C` [βA-WLA-YGSK-bio] (H-[βAla]WLAYPDSVPYGSK(Biotin)-OH; N-terminus and C-terminus assumed): the IC50 in series [2] was found to be 400 ± 70 nM.
On the same count and under the same terms, the figure for `CC(C)C[C@H](NC(=O)[C@H](Cc1c[nH]c2ccccc12)NC(=O)CCN)C(=O)N[C@@H](C)C(=O)N[C@@H](Cc1ccc(O)cc1)C(=O)N1CCC[C@H]1C(=O)N[C@@H](CC(=O)O)C(=O)N[C@@H](CO)C(=O)N[C@H](C(=O)N1CCC[C@H]1C(=O)N[C@@H](Cc1ccc(O)cc1)C(=O)N[C@@H](CCCCNC(=O)CCCC[C@@H]1SC[C@@H]2NC(=O)N[C@@H]21)C(=O)O)C(C)C` [βA-WLA-YK-bio] (H-[βAla]WLAYPDSVPYK(Biotin)-OH; N-terminus and C-terminus assumed) is 730 ± 90 nM.
On to `CC(C)C[C@H](NC(=O)[C@H](Cc1c[nH]c2ccccc12)NC(=O)CCN)C(=O)N[C@@H](C)C(=O)N[C@@H](Cc1ccc(O)cc1)C(=O)N1CCC[C@H]1C(=O)N[C@@H](CC(=O)O)C(=O)N[C@@H](CO)C(=O)N[C@H](C(=O)N1CCC[C@H]1C(=O)N[C@@H](Cc1ccc(O)cc1)C(=O)N[C@@H](CCCNC(=N)N)C(=O)O)C(C)C` [βA-WLA-YR] (HELM PEPTIDE1{[bAla].W.L.A.Y.P.D.S.V.P.Y.R}$$$$V2.0; N-terminus and C-terminus assumed), for which the solubility in series [1] (setting [3]) and in series [1] (setting [4]) was 5000 µg/mL (≈ 3.48 mM) throughout. The IC50 in series [2] is 390 ± 30 nM.
Compound `CC(C)C[C@H](NC(=O)[C@H](Cc1c[nH]c2ccccc12)NC(=O)CCN)C(=O)N[C@@H](C)C(=O)N[C@@H](Cc1ccc(O)cc1)C(=O)N1CCC[C@H]1C(=O)N[C@@H](CC(=O)O)C(=O)N[C@@H](CO)C(=O)N[C@H](C(=O)N1CCC[C@H]1C(=O)N[C@@H](Cc1ccc(O)cc1)C(=O)N[C@@H](CO)C(=O)N[C@@H](CCCCNC(=O)CCCC[C@@H]1SC[C@@H]2NC(=O)N[C@@H]21)C(=O)O)C(C)C` [βA-WLA-YSK-bio] (H-[βAla]WLAYPDSVPYSK(Biotin)-OH; N-terminus and C-terminus assumed) gave a solubility in series [1] (setting [3]) of 2000 µg/mL (≈ 1.16 mM).
Take `CC(C)C[C@H](NC(=O)[C@H](Cc1c[nH]c2ccccc12)NC(=O)CCN)C(=O)N[C@@H](C)C(=O)N[C@@H](Cc1ccc(O)cc1)C(=O)N1CCC[C@H]1C(=O)N[C@@H](CC(=O)O)C(=O)N[C@@H](CO)C(=O)N[C@H](C(=O)N1CCC[C@H]1C(=O)N[C@@H](Cc1ccc(O)cc1)C(=O)N[C@@H](CO)C(=O)N[C@@H](CCCCN)C(=O)O)C(C)C` [βA-WLA-YSK] (HELM PEPTIDE1{[bAla].W.L.A.Y.P.D.S.V.P.Y.S.K}$$$$V2.0; N-terminus and C-terminus assumed): the solubility in series [1] (setting [3]) stood at 5000 µg/mL (≈ 3.34 mM); in series [1] (setting [4]), 2000 µg/mL (≈ 1.34 mM). In series [2], this compound yielded an IC50 of 380 ± 140 nM.
On to `CC(C)C[C@H](NC(=O)[C@H](Cc1c[nH]c2ccccc12)NC(=O)CCN)C(=O)N[C@@H](C)C(=O)N[C@@H](Cc1ccc(O)cc1)C(=O)N1CCC[C@H]1C(=O)N[C@@H](CC(=O)O)C(=O)N[C@@H](CO)C(=O)N[C@H](C(=O)N1CCC[C@H]1C(=O)N[C@@H](Cc1ccc(O)cc1)C(=O)N[C@@H](CO)C(=O)N1CCC[C@H]1C(=O)N[C@@H](CCCCNC(=O)CCCC[C@@H]1SC[C@@H]2NC(=O)N[C@@H]21)C(=O)O)C(C)C` [βA-WLA-YSPK-bio] (H-[βAla]WLAYPDSVPYSPK(Biotin)-OH; N-terminus and C-terminus assumed), for which the IC50 in series [2] was 62 ± 3 nM.
On the same count and under the same terms, the figure for WLAYPDSVPM-NH2 [WLAam] is 1500 nM.

What is called solubility is how much of the substance goes into solution per volume. Read a low solubility as little dissolved substance. The term IC50 denotes the concentration that gives 50% inhibition. Low readings indicate higher potency, high ones lower potency.

The values are drawn from patent US12398179B2, “Nanomolar peptides and derivatives to differentially modulate ephrin receptors” (Sanford Burnham Prebys Medical Discovery Institute, priority 2019, dated 2025).
